Assay results: the NIST ThermoML archive (doi:10.1021/je900812v)
± gives the expanded uncertainty stated by the source.

Legend:
[1] = Liquid; for mass density: 298.15 K, 101.33 kPa, Pycnometric method
[2] = refractive index (Na D-line) (dimensionless); conditions: 298.15 K; 101.33 kPa; Liquid; Standard Abbe refractometry
[3] = Boiling temperature at pressure P; conditions: 101.3 kPa; Liquid; Ebulliometric method (Recirculating still)

CC(C)CCO [3-methylbutan-1-ol]
Conditions	mass density [kg/m3]
[1]	807.6 ± 0.2

[1]
Conditions	vapor or sublimation pressure [kPa]
336.35 K	5.27 ± 0.27
346.9 K	9.25 ± 0.28
354.2 K	12.96 ± 0.3
354.3 K	13.24 ± 0.3
356.85 K	14.83 ± 0.32
359.75 K	17.09 ± 0.33
360.65 K	17.61 ± 0.33
363.55 K	20.13 ± 0.4
364.05 K	20.81 ± 0.35
365.45 K	21.98 ± 0.37
368.3 K	25.18 ± 0.38
369.5 K	26.24 ± 0.38
371.5 K	28.64 ± 0.4
380.65 K	41.65 ± 0.53
381.65 K	43.64 ± 0.54
389.6 K	59.58 ± 0.67
391.35 K	64.3 ± 0.62
392.65 K	66.58 ± 0.64
395.55 K	74.19 ± 0.68
396.9 K	77.47 ± 0.7
398.25 K	81.46 ± 0.76
403.05 K	96.21 ± 1.2
403.75 K	99.99 ± 0.84
404.55 K	101.33 ± 0.7
405.15 K	103.46 ± 0.88
408.05 K	114.26 ± 0.94
410.95 K	125.72 ± 0.97
413.05 K	133.86 ± 0.98

CC(=O)OCCC(C)C [3-methylbutyl ethanoate]
Conditions	mass density [kg/m3]	refractive index
[1]	866.4 ± 0.2	–
[2]	–	1.39893 ± 0.0008

[1]
Conditions	vapor or sublimation pressure [kPa]
368.15 K	22.4 ± 0.4
369.35 K	23.4 ± 0.4
370.65 K	24.6 ± 0.4
371.85 K	25.7 ± 0.4
372.45 K	26.3 ± 0.4
380.65 K	35.3 ± 0.4
381.75 K	36.7 ± 0.4
387 K	43.9 ± 0.5
387.9 K	45.2 ± 0.5
390.95 K	50 ± 0.5
392.75 K	52.9 ± 0.5
394.25 K	55.5 ± 0.5
395.65 K	58 ± 0.5
398.65 K	63.7 ± 0.6
401.85 K	70.1 ± 0.6
403.35 K	73.3 ± 0.6
407.15 K	81.9 ± 0.7
409.55 K	87.8 ± 0.7
410.95 K	91.3 ± 0.7
412.85 K	96.3 ± 0.7
414.15 K	99.8 ± 0.7
414.85 K	101.7 ± 0.8
415.35 K	103.1 ± 0.8
416.45 K	106.2 ± 0.8

CCCCCO [pentan-1-ol]
Conditions	Boiling temperature at pressure P [°C]	mass density [kg/m3]	refractive index
[1]	–	811.2 ± 0.4	–
[2]	–	–	1.4077 ± 0.0008
[3]	137.80 ± 0.3	–	–

Conditions	vapor or sublimation pressure [kPa]
[1], 410.95 K, Ebulliometric method (Recirculating still)	101.3

CCCCCOC(C)=O [pentyl ethanoate]
Conditions	Boiling temperature at pressure P [°C]	mass density [kg/m3]	refractive index
[1]	–	872.3 ± 0.9	–
[2]	–	–	1.4005 ± 0.0009
[3]	148.40 ± 0.3	–	–

Conditions	vapor or sublimation pressure [kPa]
[1], 421.55 K, Ebulliometric method (Recirculating still)	101.3
